Test results from publication PMC12518639, “Apomorphine is a novel necroptosis inhibitor targeting mixed lineage kinase domain-like protein oligomerization” (Cell Death Discovery, 2025).

Tests used:
[1] = tested on: J774A.1 cells transfected with Wt-mMLKL (1–464)-gyrase; assay: PI uptake after chemically induced mMLKL-gyrase dimerization; assay type: cell-based, mouse; conditions: 20 μM overnight
Protocol: PI uptake assays were performed in triplicate to evaluate pore formation on the plasma membrane. THP‑1 cells (2 × 10⁵ cells/well) were seeded in black-walled, clear-bottom 96-well plates and treated with TBZ (TNF, BV6, and z-VAD-FMK) in the presence or absence of candidate compounds for 8 h to induce necroptosis. […] PI (556463, BD Biosciences, San Jose, CA, USA) was added at a final concentration of 1 μg/mL for 10 min before measurement. Fluorescence was recorded using a Varioskan Flash 3001 plate reader (Thermo Fisher Scientific, Waltham, MA, USA).
J774A.1 cells were transfected with plasmids encoding mMLKL (1–464)-gyrase. mMLKL-gyrase expression was induced with 10 ng/mL doxycycline (Dox), followed by 700 nM coumermycin treatment for 4 h to promote dimerization. Then, Ox-APO (20 μM) was added, and the cells were incubated overnight. PI uptake was measured using a microplate reader, and the values were normalized to those of the untreated group. Data represent mean ± SEM (n = 3). **p < 0.01, ***p < 0.001, one-way ANOVA. The expression of mMLKL-gyrase was confirmed by SDS-PAGE of WCLs, followed by immunoblotting with the indicated antibodies. The arrowhead indicates endogenous MLKL, while the tailed arrow denotes the mMLKL–gyrase fusion protein.

[2] = tested on: APAP-induced liver injury in MLKL−/− C57BL/6 mice; assay: APAP-induced liver injury in MLKL knockout mice; assay type: in vivo, mouse; conditions: 15 mg/kg, 400 mg/kg APAP, 24 h
Protocol: For APAP-induced liver injury, male BALB/c mice aged 6–8 weeks (Central Lab Animal Inc., S. Korea) and male MLKL^–/– C57BL/6 mice aged 6–8 weeks (Cyagen, Santa Clara, CA, USA) were administered acetaminophen (APAP; 400–500 mg/kg, 103-90-2, Sigma-Aldrich) by i.p. injection to induce liver injury in the presence or absence of APO after 12 h of fasting. After 24 h, the mice were sacrificed to obtain liver tissues for further analysis.
For liver tissue preparation, each liver was perfused with DPBS and then fixed in 4% paraformaldehyde (PFA; PC2031-050-00, Biosesang, S. Korea) before embedding in paraffin. Sections were stained with H&E, and necrotic areas were quantified using ImageJ by calculating the proportion of pale or unstained regions relative to the total tissue area. Mouse liver sections were subjected to IHC staining to assess distinct forms of cell death: an anti-p-MLKL antibody (MA5-32752, Thermo Fisher Scientific) to evaluate p-MLKL localization (necroptosis), a TUNEL assay kit (4810-30-K, R&D Systems) for apoptosis, and an anti-4-HNE antibody (GTX01087, GeneTex) for ferroptosis.
Fig. S6 APO reduces liver damage in MLKL^–/– mice. […] Necrotic areas were quantified as the proportion of unstained regions relative to the total tissue area. […] (D) Serum AST and ALT levels were evaluated to assess liver injury after APAP injection. […]

THP-1-HMGB1-Lucia cells = assay: TBZ-induced necroptosis screening by HMGB1-luciferase release; assay type: cell-based, human; conditions: Homo sapiens; 20 μM compound with TBZ, 8 h; TBZ alone = 100, DPBS = 0; read-out: % Inhibition (luciferase activity relative to TBZ-treated supernatant)
In short: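 THP-1-HMGB1-Lucia cells pretreated 1 h with compound (20 μM) plus Z-VAD-FMK 50 μM, then necroptosis induced with TNF-α 100 ng/mL and BV6 10 μM. Supernatant HMGB1-luciferase read by luminescence; inhibition % derived from (sample − medium)×100/(TBZ − medium), with NEC-1 and NSA as controls.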

Structure (SMILES)	PI-positive cells after Dox and coumermycin stimulation [1]	hepatic damage (H&E, ALT, AST, TUNEL, 4-HNE) [2]	activity at 20 µM (THP-1-HMGB1-Lucia cells)
CN1CCc2cccc3c4c(cc1c23)C=CC(=O)C4=O [Ox-APO]	markedly reduced	significantly reduced	–
CN1CCc2cccc3c2[C@@H]1Cc1ccc(O)c(O)c1-3 [S62, (6aS)-6-methyl-5,6,6a,7-tetrahydro-4H-dibenzo[de,g]quinoline-10,11-diol]	–	–	7.1%
